{"source": "patent US10869929B2", "about": "“Phosphonate linkers and their use to facilitate cellular retention of compounds” (priority 2016, dated 2020)", "key": {"ZBTB16 mRNA": {"system": "ZBTB16 mRNA", "experiment": "Up-regulation of ZBTB16 mRNA in primary human B cells", "type": "cell-based", "method": "The carrier solution for all ADCs and naked antibodies was 50 mM histidine pH 6.0, 100 mM NaCl and 5% trehelose. To assure consistency across experiments, ADCs were thawed on ice, dispensed to small aliquots, frozen to −80° C., and those aliquots were then used for experiments with unused material discarded at the end of the day. For all in vitro studies in this report, none of the read outs were measurably different in the presence or absence of the carrier solution. Nevertheless, the final concentration of antibody carrier solution was maintained constant at 1% v/v by serially diluting antibody solution prior to addition to the assay mixture and adding carrier solution to control wells.\nFor the studies of ADCs bearing reduced permeability payloads frozen human CD19+ B cells purchased from Precision Biosciences (catalog #84400, donor #13108) were thawed and re-suspended in RPMI1640 plus 10% heat-inactivated FBS (cell culture medium) at 1 million cells/mL. […] B cells were bulk treated in a 96-well block and subsequently dispensed to 96 well plates (100 μL and […] cells per well) and incubated at 37° C., 5% CO2 for 18 or 40 hr. Control wells containing equal percentages of DMSO (0.1%) and ADC buffer (1%) as sample wells were included. Cells were transferred to a 96 well v-bottom plate and spun at 500×g for 5 min. Medium was removed and cells were lysed in 150 μL RLT buffer containing beta-mercaptoethanol. RNA was isolated (RNeasy 96 kit, Qiagen, Cat #74181) and cDNA was synthesized (iScript cDNA Synthesis Kit, BioRad, Cat #170-8891) according to the supplier's protocol. Quantitative PCR was performed on Applied Biosystem's 7900 HT Real-Time PCR System to measure expression of ZBTB16 (Life Technologies, Hs00957433_m1) and GAPDH (Life Technologies, Hs02758991_g1) in duplex format.\nThe ΔΔCt method was used to calculate fold change of expression of ZBTB16 relative to control sample, using 3 replicates per treatment condition. For free cell impermeable compounds, B cells were seeded at 100,000 cells/well in 90 μL in a 96-well flat bottom plate. Three fold serial dilutions were performed in DMSO, subsequent intermediate 10× stocks were made in tissue-culture medium and then added to the cell plate (10 μL/well). Cells were incubated at 37° C., 5% CO2 for 18 hr, harvested and processed for PCR as described above. EC50 curves were calculated using Graph Pad Prism 6 software using nonlinear fit (agonist) vs. response-variable slope (four parameters) calculation.\nPotency and maximum activity of reduced permeability glucocorticoids (free payload) and the corresponding anti-CD74-drug conjugates on up-regulation of ZBTB16 mRNA levels in primary human B cells in vitro."}, "glucocorticoid receptor": {"target": "glucocorticoid receptor (Homo sapiens (Human), UniProt P04150)", "sequence (P04150 whole entry)": "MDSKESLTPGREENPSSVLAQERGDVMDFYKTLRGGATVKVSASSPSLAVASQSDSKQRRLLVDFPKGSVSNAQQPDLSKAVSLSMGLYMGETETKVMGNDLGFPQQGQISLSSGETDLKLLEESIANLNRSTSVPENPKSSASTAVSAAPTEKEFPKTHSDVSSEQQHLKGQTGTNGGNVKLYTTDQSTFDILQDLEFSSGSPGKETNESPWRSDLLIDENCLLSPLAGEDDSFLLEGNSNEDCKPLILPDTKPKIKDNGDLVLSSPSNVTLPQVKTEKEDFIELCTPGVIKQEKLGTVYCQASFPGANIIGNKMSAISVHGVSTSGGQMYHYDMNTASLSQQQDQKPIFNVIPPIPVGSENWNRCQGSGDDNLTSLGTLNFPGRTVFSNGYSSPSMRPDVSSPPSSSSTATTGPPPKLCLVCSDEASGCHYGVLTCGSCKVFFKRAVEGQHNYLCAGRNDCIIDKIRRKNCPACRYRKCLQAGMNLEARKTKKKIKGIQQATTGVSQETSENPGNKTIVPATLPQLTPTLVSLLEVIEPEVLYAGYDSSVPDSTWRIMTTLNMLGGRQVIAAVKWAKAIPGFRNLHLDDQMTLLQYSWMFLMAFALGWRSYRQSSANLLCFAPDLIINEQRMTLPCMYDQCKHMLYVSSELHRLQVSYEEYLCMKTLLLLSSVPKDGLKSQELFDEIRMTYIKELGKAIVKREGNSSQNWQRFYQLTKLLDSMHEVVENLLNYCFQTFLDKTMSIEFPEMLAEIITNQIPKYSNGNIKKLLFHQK", "experiment": "PolarScreen Glucocorticoid Receptor Competitor Assay (GR binding)", "details": "fluormone GS red, GR full length protein; read-out: GR Bind IC50", "protocol": "The potency of binding to glucocorticoid receptor by small molecule compounds was measured with the PolarScreen™ Glucocorticoid Receptor Competitor Assay Kit, Red (Life Technology, Catalog #A15898) according to the procedure in the kit. In brief, after compounds were diluted and transferred into assay plates, the fluormone GS red and GR full length protein were subsequently added into the assay plates, along with the positive and negative controls. The samples were mixed on a shaker for 1 minute and then the plates were incubated at room temperature for 2-4 hours with minimal light exposure. The plates were read with an Envision and the relative fluorescent signals were calculated. The data were plotted in GraphPad Prism and the EC50 values were calculated with non-linear regression curve fit of the data in GraphPad Prism."}, "MDCKII cells": {"system": "MDCKII cells", "experiment": "Apparent permeability in MDCKII cells", "type": "in vitro ADME", "details": "1 μM, t=3 hr, average of A to B and B to A Papp", "protocol": "Determination of apparent permeability was as follows. MDCKII cells (kindly provided by the Netherlands Cancer Institute, under a licensing agreement) were seeded on to 96-well transwell culture plates (Millipore Corp, Billerica, Mass.) and used in experiments after five days in culture. […] Substrate solution (150 μL) was added to either the apical (A) or the basolateral (B) compartment of the culture plate, and buffer (150 μL; HBSS, 10 mM HEPES, pH 7.4) with 10 μM cyclosporine A was added to the compartment opposite to that containing the substrate. At t=3 hr, 50 μL samples were removed from both sides of monolayers dosed with test compound and placed in 96 well plates, 50 μL internal standard (1 μM labetolol) and 100 μL HBSS was added to the samples. Samples were analyzed by LC/MS/MS using an Applied Biosystems SCIEX API 5000 triple quadruple mass spectrometer (Concord, ON, Canada) with a TurbolonSpray ion source in the positive ion mode. A Thermo Scientific Transcend LX-2 system (Franklin, Mass.) was coupled to the API 5000 with a flow rate of 800 μL/min to direct sample into the mass spectrometer.\nPapp was expressed as 10^−6 cm/s."}, "GILZ gene": {"system": "GILZ gene", "experiment": "GILZ gene assay (qPCR, HUT78 / 786-O cells)", "type": "cell-based", "protocol": "GILZ gene assays were conducted as follows. HUT78 cells were cultured in IMEM plus 20% heat inactivated FBS and cell density was maintained between 0.1 to 1.2 million/mL. 786-O cells were cultured in RPMI plus 10% heat inactivated FBS. Actively growing cells were harvested and resuspended in HBSS with 2% FBS at 1.1 million cells per mL then dispensed to 384-well V-bottom plates at 45 μL per well. Serially diluted ADC solution was added to the cell plate (5 μL per well) and mixed for 2 min. Cells were then cultured at 37° C., at 5% CO2 for a designated time before supernatant was removed. Cells were harvested in lysis buffer from the Cells-to-Ct kit (40 μL, Life Technologies, 4391851C) following the supplier's protocol and mixed for 10 min followed by addition of 5 μL per well of stop solution from the kit. cDNA was synthesized with a reverse transcription kit (Life Technologies, 4391852C) follow by qPCR using the TaqMan gene expression master mix (Life Technologies, 4369016) with GILZ gene assay (Life Technologies, Hs00608272_m1) and GAPDH assay (Hs2758991_g1) in a duplex format with 3-4 technical replicates."}}, "note": "pEC50, pIC50: −log10 of the molar value.", "data": [{"smiles": "CCC(=O)O[C@]1(C(=O)SCCCCCCCCCCP(=O)(O)O)[C@H](C)C[C@H]2[C@@H]3C[C@H](F)C4=CC(=O)C=C[C@]4(C)[C@@]3(F)[C@@H](O)C[C@@]21C", "note": "[Compound 3, (10-(((6S,8S,9R,10S,11S,13S,14S,16R,17R)-6,9-difluoro-11-hydroxy-10,13,16-trimethyl-3-oxo-17-(propionyloxy)-6,7,8,9,10,11,12,13,14,15,16,17-dodecahydro-3H-cyclopenta[a]phenanthrene-17-carbonyl)thio)decyl)phosphonic acid]", "values": [{"measurement": "ZBTB16 mRNA Max relative to free fluticasone", "setting": "ZBTB16 mRNA", "result": 75, "unit": "%"}, {"measurement": "pEC50", "setting": "ZBTB16 mRNA; B-cell, free payload", "result": 5.96}, {"measurement": "pIC50", "setting": "glucocorticoid receptor", "result": 9.36}, {"measurement": "MDCK Permeability (cm × 10−6/sec)", "setting": "MDCKII cells", "result": 1.04, "unit": "cm × 10−6/sec"}, {"measurement": "GILZ Max", "setting": "GILZ gene; at 10 uM", "result": "71% (at"}, {"measurement": "pEC50", "setting": "GILZ gene; read-out: GILZ EC50", "result": 6.19}]}]}
